According to publication PMC9266822, “Thermal Shift Assay for Small GTPase Stability Screening: Evaluation and Suitability” (International Journal of Molecular Sciences, 2022):
“Also recorded” adds a separate entry of the source.

What was measured:
KRAS G12C = test system: T1, KRAS G12C; experiment: Protein-Probe thermal stability assay; type: binding, human; details: for thermal stability effect: 10 µM compound, 1 mM MgCl2
T1 construct: GG-Hs.KRAS4b (2-188) G12C; His6-MBP (N, cleaved yes); made in house; host or cells: E. coli
Experimental: All Protein-Probe assays were performed using a sample volume of 8 µL and a two-step assay protocol. […] Assays were performed in a sample buffer containing 10 mM HEPES (pH 7.5), 0.001% Triton X-100 and 20 mM NaCl and the buffer was supplemented with 0–10 mM MgCl2, 0–1 mM CaCl2, or 0–1 mM EDTA, depending on the assay. In all thermal stability assays, samples were preincubated at RT for 10 min (nucleotides) or 30 min (inhibitors) prior to thermal measurements. […] At each temperature, samples were incubated for 3 min before the Protein-Probe solution was added, and the TRL-signals at 620 nm were monitored at RT. […]
(§1) All inhibitor assays were performed with a buffer containing 1 mM MgCl2. […]

KRAS WT [1] = test system: T2, KRAS WT; experiment: Protein-Probe thermal stability assay; type: binding, human; details: for thermal stability effect: 10 µM compound; for thermal stability effect / KRAS stabilizing effect / concentration at which KRAS was stabilized: 1 mM MgCl2; for Thermal Stability (°C): Table S1, additive as headed: EDTA 0.5 mM, MgCl2 1 mM, GDP 10 mM, GTP 10 µM, GTPγS 10 µM, GMP-PNP 300 µM; for Thermal Stability (°C) / KRAS stabilizing effect: GMP-PCP 300 µM, GMP 1 mM
T2 construct: His6-MBP (N, cleaved yes); made in house; host or cells: E. coli
Experimental: (§2) All Protein-Probe assays were performed using a sample volume of 8 µL and a two-step assay protocol. Detection was performed at room temperature (RT) by adding 65 µL Protein-Probe solution: 4 µM HIDC (1,1,3,3,3′,3′-hexamethylindodicarbocyanine iodide) and 1–1.5 nM Eu^3+-labeled peptide probe (NH2-[…]). Assays were performed in a sample buffer containing 10 mM HEPES (pH 7.5), 0.001% Triton X-100 and 20 mM NaCl and the buffer was supplemented with 0–10 mM MgCl2, 0–1 mM CaCl2, or 0–1 mM EDTA, depending on the assay. In all thermal stability assays, samples were preincubated at RT for 10 min (nucleotides) or 30 min (inhibitors) prior to thermal measurements. Depending on the studied protein, thermal ramping was performed up to 95 °C, using 5 °C intervals. At each temperature, samples were incubated for 3 min before the Protein-Probe solution was added, and the TRL-signals at 620 nm were monitored at RT.
(§3) In addition, KRAS WT was monitored in a sample buffer supplemented with 0–10 mM MgCl2 or 0–1 mM CaCl2.
[…] KRAS WT (50 nM) was also monitored with 10 µM GDP in a buffer without MgCl2 or supplemented with 0–1 mM CaCl2 or 1 mM EDTA. HRAS (2 µM), NRAS (2 µM), RhoA (2 µM), and Gαi (50 nM) were monitored with 100 µM GDP, GTP, or ATP in buffers with or without 1 mM MgCl2 and 1 mM EDTA. In addition, melting curves for KRAS WT (50 nM) were measured with GTP analogs GTPγS, GMPPNP, and GMPPCP (0–300 µM), and GMP (0–1000 µM) in the presence of 1 mM MgCl2.
as §1

KRAS G12D = experiment: Protein-Probe thermal stability assay; type: binding, human; details: KRAS G12D 50 nM; 10 µM compound
Experimental: as §2, §3
(§4) KRAS G13D (50 nM) was monitored in the presence of 0–900 nM GDP, and KRAS WT, G13D, G12D, and Q61R (50 nM) were monitored with 10 and/or 100 µM GDP, GTP, and ATP in buffer supplemented with 1 mM MgCl2. KRAS WT (50 nM) was also monitored with 10 µM GDP in a buffer without MgCl2 or supplemented with 0–1 mM CaCl2 or 1 mM EDTA. HRAS (2 µM), NRAS (2 µM), RhoA (2 µM), and Gαi (50 nM) were monitored with 100 µM GDP, GTP, or ATP in buffers with or without 1 mM MgCl2 and 1 mM EDTA. In addition, melting curves for KRAS WT (50 nM) were measured with GTP analogs GTPγS, GMPPNP, and GMPPCP (0–300 µM), and GMP (0–1000 µM) in the presence of 1 mM MgCl2.
All inhibitor assays were performed with a buffer containing 1 mM MgCl2.
(§5) Assays were performed using three DARPins alone or in combination with small molecular inhibitors. […] The thermal curves were monitored after an additional 30 min incubation at RT.

KRAS WT [2] = target: T3, KRAS WT (Homo sapiens, UniProt P01116); experiment: QRET nucleotide exchange assay, SOScat induced; type: biochemical; details: for EC50: nucleotide titration, SOScat 5 nM (Table S2), 10 nM (Fig. 3 legend); for EC50 / KRAS binding level / KRAS binding: 15 nM KRAS; for KRAS binding level / KRAS binding: Fig. 3A legend, SOScat 10 nM
T3 construct: GG-Hs.KRAS4b (2-188), GG-Hs.KRAS4b (2-188) G12C; His6-MBP (N, cleaved yes); made in house; host or cells: E. coli

KRAS Q61R = test system: T4, KRAS Q61R; experiment: Protein-Probe thermal stability assay; type: binding, human; details: for Thermal Stability (°C): Table S1, KRAS Q61R 50 nM, EDTA 0.5 mM, MgCl2 1 mM, GDP 10 mM, GTP 10 µM as headed
T4 construct: GG-Hs.KRAS4b (2-188) Q61R; His6-MBP (N, cleaved yes); made in house; host or cells: E. coli
Experimental: as §2, §3, §4, §5

KRAS G13D = test system: T5, KRAS G13D; experiment: Protein-Probe thermal stability assay; type: binding, human; details: for Thermal Stability (°C): Table S1, KRAS G13D 50 nM, EDTA 0.5 mM, MgCl2 1 mM, GDP 10 mM, GTP 10 µM as headed
T5 construct: GG-Hs.KRAS4b (2-188) G13D; His6-MBP (N, cleaved yes); made in house; host or cells: E. coli
Experimental: as §2, §3, §4, §5

RhoA = test system: T6, RhoA; experiment: Protein-Probe thermal stability assay; type: binding; details: Table S1; RhoA 1 µM; additive concentrations not given (100 µM GDP/GTP)
T6 construct: and RhoA (1-182) were gen-; His6-MBP (N, cleaved yes); made in house; host or cells: E. coli
Experimental: as §2, §3
as §4, with “HRAS (2 µM), NRAS (2 µM), RhoA (2 µM), and Gαi (50 nM) were monitored with 100 µM GDP, GTP, or ATP in buffers with or without 1 mM MgCl2 and 1 mM EDTA.” left out

Gαi = experiment: Protein-Probe thermal stability assay; type: binding; details: 100 µM GDP or GTP
Experimental: as §2, §3, §4

T3 sequence (P01116 2-188 isoform P01116-2): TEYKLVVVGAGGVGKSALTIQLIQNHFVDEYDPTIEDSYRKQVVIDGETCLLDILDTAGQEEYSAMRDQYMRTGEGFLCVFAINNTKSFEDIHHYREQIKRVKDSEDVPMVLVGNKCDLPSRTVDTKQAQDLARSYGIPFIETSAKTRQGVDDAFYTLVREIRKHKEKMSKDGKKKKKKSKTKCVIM

CNCc1ccccc1-c1csc([C@@H](C)Nc2nc(C)nc3cc(OC)c(OC)cc23)c1 [BAY-293]
thermal stability effect (KRAS G12C; KRAS G12C 50 nM): no response

Cn1cnc(Cn2ccc3ccc(CNCc4[nH]c5ccccc5c4[C@H]4NC(=O)c5ccc(O)cc54)cc32)c1 [BI-2852]
thermal stability effect (KRAS WT [1]; KRAS WT 50 nM): Neither compound altered; also recorded: negligible
thermal stability effect (KRAS G12D): Neither compound altered; also recorded: negligible
thermal stability effect (KRAS G12C; KRAS G12C 50 nM): negligible
IC50 (KRAS WT [2]; 100 nM KRAS WT, 10 nM SOScat, inhibitor preincubated with KRAS): 2800 ± 700 nM

Cn1cnc(Cn2ccc3ccc(CNCc4[nH]c5ccccc5c4[C@@H]4NC(=O)c5ccc(O)cc54)cc32)c1 [BI-2853]
thermal stability effect (KRAS WT [1]; KRAS WT 50 nM): Neither compound altered
thermal stability effect (KRAS G12D): Neither compound altered
thermal stability effect (KRAS G12C; KRAS G12C 50 nM): no response
effect on KRAS nucleotide exchange activity (KRAS WT [2]; 100 nM KRAS WT, 10 nM SOScat): no effect

[Ca+2].[Cl-].[Cl-] [CaCl2]
stability increase compared to 1 mM EDTA (KRAS WT [1]; KRAS WT 50 nM, additive 0.1 mM): 1.2 °C
stability increase compared to 1 mM EDTA (KRAS WT [1]; KRAS WT 50 nM, additive 1 mM): 3.7 °C

O=C(O)CN(CCN(CC(=O)O)CC(=O)O)CC(=O)O [EDTA]
Tm (KRAS WT [1]; KRAS WT 50 nM, 1 mM EDTA, unit not given, in °C (unit assumed)): 50.8 ± 0.6
Tm (KRAS WT [1]; KRAS WT 100 nM, additive 1 mM): 48.9 ± 0.4 °C
Thermal Stability (°C) (KRAS WT [1]; KRAS WT 50 nM): 49.0 °C
Tm (KRAS Q61R; KRAS Q61R 100 nM, additive 1 mM): 50.6 ± 1.0 °C
Thermal Stability (°C) (KRAS Q61R): 51.8 ± 0.9 °C
Tm (KRAS G13D; KRAS G13D 100 nM, additive 1 mM): 43.6 ± 0.8 °C
Thermal Stability (°C) (KRAS G13D): 47.7 ± 0.5 °C
Thermal Stability (°C) (RhoA): 44.7 °C
Thermal Stability (°C) (KRAS G12C; Table S1, KRAS G12C 50 nM, EDTA 0.5 mM, MgCl2 1 mM): 48.2 ± 0.4 °C

Nc1nc2c(ncn2[C@@H]2O[C@H](COP(=O)(O)O)[C@@H](O)[C@H]2O)c(=O)[nH]1 [GMP, guanosine-5’-monophosphate]
KRAS stabilizing effect (KRAS WT [1]; KRAS WT 50 nM): no KRAS stabilizing effect; also recorded: no KRAS stabilization
Thermal Stability (°C) (KRAS WT [1]; KRAS WT 50 nM): 61.3 °C
EC50 (KRAS WT [2]): 101000 ± 8000 nM

Nc1nc2c(ncn2C2OC(COP(=O)(O)OP(=O)(O)CP(=O)(O)O)C(O)C2O)c(=O)[nH]1 (stereo not drawn) [GMP-PCP, guanosine-5’-[(β,γ)-methyleno]triphosphate]
KRAS stabilizing effect (KRAS WT [1]; KRAS WT 50 nM): minor effects
Thermal Stability (°C) (KRAS WT [1]; KRAS WT 50 nM): 64.4 °C
KRAS binding level (KRAS WT [2]): micromolar
EC50 (KRAS WT [2]): 542 ± 38 nM

Nc1nc2c(ncn2[C@@H]2O[C@H](COP(=O)(O)OP(=O)(O)NP(=O)(O)O)[C@@H](O)[C@H]2O)c(=O)[nH]1 [GMP-PNP, guanosine-5’-[(β,γ)-imido]triphosphate]
Tm of nucleotide-preloaded KRAS (KRAS WT [1]; KRAS 50 nM preloaded with the nucleotide, unit not given, in °C (unit assumed)): 53.2 ± 0.3
concentration at which KRAS was stabilized (KRAS WT [1]; KRAS WT 50 nM): 300000 nM
Thermal Stability (°C) (KRAS WT [1]; KRAS WT 50 nM): 67.1 ± 0.1 °C
KRAS binding level (KRAS WT [2]): micromolar
EC50 (KRAS WT [2]): 71.2 ± 9.3 nM

Nc1nc2c(ncn2[C@@H]2O[C@H](COP(=O)(O)OP(=O)(O)OP(=O)(O)O)[C@@H](O)[C@H]2O)c(=O)[nH]1 [GTP, guanosine-5’-triphosphate]
concentration at which KRAS was stabilized (KRAS WT [1]; KRAS WT 50 nM): 10000 nM
Thermal Stability (°C) (KRAS WT [1]; KRAS WT 50 nM): 68.2 °C
Thermal Stability (°C) (KRAS Q61R): 71.7 °C
Thermal Stability (°C) (KRAS G13D): 60.8 °C
Thermal Stability (°C) (RhoA): 73.0 °C
max ΔTm (Gαi; with Mg2+): ≤ 1.0 °C
max ΔTm (Gαi; without Mg2+): ≤ 3.3 °C
KRAS binding (KRAS WT [2]): < 15 nM
EC50 (KRAS WT [2]): 7.9 ± 0.6 nM

Nc1nc2c(ncn2[C@@H]2O[C@H](COP(=O)(O)OP(=O)(O)OP(O)(O)=S)[C@@H](O)[C@H]2O)c(=O)[nH]1 [GTPγS, guanosine-5’-(γ-thio)-triphosphate]
concentration at which KRAS was stabilized (KRAS WT [1]; KRAS WT 50 nM): 10000 nM
Thermal Stability (°C) (KRAS WT [1]; KRAS WT 50 nM): 67.8 ± 0.6 °C
KRAS binding (KRAS WT [2]): < 15 nM
EC50 (KRAS WT [2]): 11.7 ± 0.8 nM

C=C(F)C(=O)N1CCN(c2nc(OC[C@@H]3CCCN3C)nc3c2CCN(c2cccc4cccc(Cl)c24)C3)C[C@@H]1CC#N [MRTX849]
ΔTm (KRAS G12C; 50 nM KRAS G12C, inhibitor 0–900 nM, thermal stability increase): 15.6 °C
